Counter-ions that a name gives are not always drawn.
Experiments:
[1] = target: T1, Angiotensin I Converting Enzyme (ACE) (Oryctolagus cuniculus, UniProt P12822); assay: Inhibition of Angiotensin I Converting Enzyme (ACE), HHL substrate, modified Cushman method; format: biochemical; conditions: compound concentration 0.1 μM; substrate hippuryl-L-histidyl-L-leucine; 37° C., 1 hour; read-out: ACE inhibitory activity (%)
T1 sequence (P12822 34-1310): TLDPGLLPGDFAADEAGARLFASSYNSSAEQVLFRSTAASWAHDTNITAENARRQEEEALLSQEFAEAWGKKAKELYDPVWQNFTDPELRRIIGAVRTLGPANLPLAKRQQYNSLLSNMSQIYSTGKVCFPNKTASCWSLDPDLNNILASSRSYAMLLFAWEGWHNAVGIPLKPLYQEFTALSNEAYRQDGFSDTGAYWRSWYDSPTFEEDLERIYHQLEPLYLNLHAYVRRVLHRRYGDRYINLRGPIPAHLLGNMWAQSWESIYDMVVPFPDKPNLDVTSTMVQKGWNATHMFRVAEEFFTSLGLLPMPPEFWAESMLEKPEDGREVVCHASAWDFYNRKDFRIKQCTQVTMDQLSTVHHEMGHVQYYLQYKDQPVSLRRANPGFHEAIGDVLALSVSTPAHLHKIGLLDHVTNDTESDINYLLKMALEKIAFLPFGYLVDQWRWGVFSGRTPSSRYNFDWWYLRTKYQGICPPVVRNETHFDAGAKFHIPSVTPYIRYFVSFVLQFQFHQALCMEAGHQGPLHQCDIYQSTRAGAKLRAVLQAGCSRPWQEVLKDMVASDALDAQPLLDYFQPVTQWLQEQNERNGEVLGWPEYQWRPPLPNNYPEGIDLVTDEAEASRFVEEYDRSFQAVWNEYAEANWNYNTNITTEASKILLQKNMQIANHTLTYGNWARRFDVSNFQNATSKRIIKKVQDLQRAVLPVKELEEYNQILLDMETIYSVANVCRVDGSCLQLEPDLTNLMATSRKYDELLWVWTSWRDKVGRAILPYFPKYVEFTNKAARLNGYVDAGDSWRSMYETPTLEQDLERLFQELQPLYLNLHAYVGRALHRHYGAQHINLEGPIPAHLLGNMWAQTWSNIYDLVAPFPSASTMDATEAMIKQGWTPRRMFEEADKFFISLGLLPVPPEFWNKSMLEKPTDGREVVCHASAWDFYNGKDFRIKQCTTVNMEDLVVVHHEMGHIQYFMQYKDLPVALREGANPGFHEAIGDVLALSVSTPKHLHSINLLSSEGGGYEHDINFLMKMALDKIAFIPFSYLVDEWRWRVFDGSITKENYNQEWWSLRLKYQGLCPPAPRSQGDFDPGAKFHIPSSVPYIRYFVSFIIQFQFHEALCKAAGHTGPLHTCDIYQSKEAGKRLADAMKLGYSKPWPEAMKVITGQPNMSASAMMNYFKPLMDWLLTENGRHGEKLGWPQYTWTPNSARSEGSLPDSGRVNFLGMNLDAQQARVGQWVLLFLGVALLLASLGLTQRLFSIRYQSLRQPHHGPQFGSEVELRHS
Description: The experiment was conducted in accordance with a modification of the method described by Cushman et al. (Biochemical Pharmacology, Vol. 20, pp. 1637, 1971). Thus, using hippuryl-L-histidyl-L-leucine (HHL) as the substrate, the ACE inhibitory activity was determined in terms of percent inhibition on the amount of hippuric acid produced by ACE when the compound of the present invention was added. A solution of the compound of the present invention in 0.02 to 5% dimethylsulfoxide-100 mM borate-HCl buffer solution (pH 8.3, containing 300 mM sodium chloride) was added to 100 μl of ACE (protein concentration, 20 mg/ml) and 100 μl of 1.25 mM HHL. In this experiment, a borate-HCl buffer solution containing dimethylsulfoxide at a concentration equal to that of the test solution was used as a control. After warming the solution at 37° C. for 1 hour, 150 μl of 1N hydrochloric acid was added to the solution to terminate the reaction. After 0.8 ml of ethyl acetate was added, the solution was centrifuged at 11,500 rpm for 2 minutes. A 0.5 ml aliquot was separated from the ethyl acetate layer and dried at a temperature of not more than 40° C. under nitrogen gas streams. The residue was mixed thoroughly with 4.5 ml of distilled water, and the mixture was subjected to colorimetry at a wavelength of 228 nm.

[2] = test system: hypertensive reaction by angiotensin I; assay: Effect against hypertensive activity of angiotensin I in rats; format: in vivo; conditions: 300 μg/kg i.v., rat, corrected by angiotensin II response
Description: Male rats (Sprague-Awley) weighing 300 to 400 g which were fed under free access to drinking water and feed were used as experimental animals. The rats were anesthetized with intraperitoneal administration of pentobarbital sodium (50 mg/kg) on the day before the test day, and a polyethylene tube was inserted into each of the femoral artery for measurement of blood pressure and the femoral vein for injection of angiotensin I and II. And the tubes were fixed.
On the test day, an average blood pressure in the control phase was measured by an electric hemodynamometer (MPU-0.5-290-0-III model, manufactured by NEC-Sanei, Japan) and recorded by a polygraph (NEC-Sanei, Tupe 365, or Nippon Kohden Type RM-45), and thereafter, angiotensin I and then angiotensin II were injected through the femoral vein at a dose of 300 ng/kg and 100 ng/kg, respectively, to measure the hypertensive activity. Then, 300 μg/kg of the compound of the present invention was administered intravenously as an isotonic saline solution, and 5, 10, 30, 60, 90 and 120 minutes after the administration, angiotensin I and II were injected repeatedly to trace hypertensive reactions. In calculating the percent inhibition to the hypertensive activity of angiotensin I, the percent inhibitory value was corrected based on the variation with time in the hypertensive reaction by angiotensin II.

[3] = 5 min. after the administration
[4] = 10 min. after the administration
[5] = 30 min. after the administration
[6] = 60 min. after the administration
[7] = 90 min. after the administration
[8] = 120 min. after the administration

**Q.** Which inhibition at 0.1 µM [1] does the source give for O=C(O)CN1C(=O)[C@@H](N[C@@H](CCC2CCNCC2)C(=O)O)CSc2ccccc21 [Example 73, 3(R)-[1(S)-carboxy-3-(4-piperidyl)propyl]amino-4-oxo-2,3,4,5-tetrahydro-1,5-benzothiazepine-5-acetic acid] here?
**A.** The inhibition at 0.1 µM was 92%.

**Q.** How did the inhibition at 0.1 µM [1] turn out when O=C(O)CN1C(=O)[C@@H](N[C@@H](CCC2CCOCC2)C(=O)O)CSc2ccccc21 [Example 74] was run?
**A.** The inhibition at 0.1 µM was 94%.

**Q.** For O=C(O)CN1C(=O)[C@@H](N[C@@H](CCC2CCSCC2)C(=O)O)CSc2ccccc21 [Example 75], which inhibition at 0.1 µM [1] is on record?
**A.** Its inhibition at 0.1 µM is 89%.

**Q.** How did the inhibition at 0.1 µM [1] turn out when O=C(O)CN1C(=O)[C@@H](N[C@@H](CCCCN2CCCCC2)C(=O)O)CSc2ccccc21 [Example 82, 3(R)-[1(S)-carboxy-5-piperidinopentyl]amino-4-oxo-2,3,4,5-tetrahydro-1,5-benzothiazepine-5-acetic acid] was run?
**A.** The inhibition at 0.1 µM was 92%.

**Q.** CCOC(=O)C(CCCC1CCNCC1)NC1CSc2ccccc2N(CC(=O)O)C1=O [Example 90, 3(R)-[1(S)-ethoxycarbonyl-4-(4-piperidyl)butyl]-amino-4-oxo-2,3,4,5-tetrahydro-1,5-berzothiazepine-5-acetic acid.dihydrobromide] was tested. Which “Inhibition against hypertensive reaction by angiotension I, %” value (from here on “Inhibition … %”) [2, 3] did it give?
**A.** Its value is 100%.

**Q.** And the “Inhibition … %” value [2, 4]?
**A.** The value was 100%.

**Q.** And the “Inhibition … %” value [2, 5]?
**A.** Its value is 100%.

**Q.** And the “Inhibition … %” value [2, 6]?
**A.** The value was 90%.

**Q.** What about the “Inhibition … %” value [2, 7] of the same molecule?
**A.** Its value is 67%.

**Q.** What about the “Inhibition … %” value [2, 8] of the same molecule?
**A.** Its value is 62%.

**Q.** How did the inhibition at 0.1 µM [1] turn out when O=C(O)CN1C(=O)[C@@H](N[C@@H](CCCC2CCNCC2)C(=O)O)CSc2ccccc21 [Example 91, 3(R)-[1(S)-carboxy-4-(4-piperidyl)butyl]amino-4-oxo-2,3,4,5-tetrahydro-1,5-benzothiazepine-5-acetic acid] was run?
**A.** The inhibition at 0.1 µM was 92%.

**Q.** For O=C(O)CN1C(=O)[C@@H](N[C@@H](CCCCC2CCNCC2)C(=O)O)CSc2ccccc21 [Example 95, 3(R)-[1(S)-carboxy-5-(4-piperidyl)pentyl]amino-4-oxo-2,3,4,5-tetrahydro-1,5-benzothiazepine-5-acetic acid], which inhibition at 0.1 µM [1] is on record?
**A.** Its inhibition at 0.1 µM is 98%.

**Q.** And the “Inhibition … %” value [2, 3]?
**A.** Its value is 96%.

**Q.** What about the “Inhibition … %” value [2, 4] of the same molecule?
**A.** Its value is 94%.

**Q.** What about the “Inhibition … %” value [2, 5] of the same molecule?
**A.** The value was 99%.

**Q.** What about the “Inhibition … %” value [2, 6] of the same molecule?
**A.** Its value is 89%.

**Q.** What about the “Inhibition … %” value [2, 7] of the same molecule?
**A.** Its value is 96%.

**Q.** And the “Inhibition … %” value [2, 8]?
**A.** Its value is 91%.

**Q.** How did the inhibition at 0.1 µM [1] turn out when O=C(O)CN1C(=O)[C@@H](N[C@@H](CCCCCC2CCNCC2)C(=O)O)CSc2ccccc21 [Example 98, 3(R)-[1(S)-carboxy-6-(4-piperidyl)hexyl]amino-4-oxo-2,3,4,5-tetrahydro-1,5-benzothiazepine-5-acetic acid] was run?
**A.** The inhibition at 0.1 µM was 98%.

**Q.** And the “Inhibition … %” value [2, 3]?
**A.** The value was 100%.

**Q.** And the “Inhibition … %” value [2, 4]?
**A.** The value was 100%.

**Q.** What about the “Inhibition … %” value [2, 5] of the same molecule?
**A.** The value was 100%.

**Q.** And the “Inhibition … %” value [2, 6]?
**A.** Its value is 100%.

**Q.** What about the “Inhibition … %” value [2, 7] of the same molecule?
**A.** Its value is 95%.

**Q.** What about the “Inhibition … %” value [2, 8] of the same molecule?
**A.** Its value is 79%.

**Q.** O=C(O)CN1C(=O)[C@@H](N[C@@H](CCCCCCC2CCNCC2)C(=O)O)CSc2ccccc21 [Example 100, 3(R)-[1(S)-carboxy-7-(4-piperidyl)heptyl]amino-4-oxo-2,3,4,5-tetrahydro-1,5-benzothiazepine-5-acetic acid] was tested. Which inhibition at 0.1 µM [1] did it give?
**A.** Its inhibition at 0.1 µM is 98%.
